For experiment [1], the system named is Mus musculus. The experiment can be described thus: In vivo inhibition of growth of solid tumors when administered orally in mice; Active. It counts as functional, organism-based.
Experiment [2] concerns Mus musculus. Nature of the experiment: In vivo inhibition of neovascularization of solid tumors when administered orally in mice; Active. It counts as functional, organism-based.

Active and inactive are the calls of the source. The rule behind the calls is not given here.

Experimental findings from ChEMBL document CHEMBL1152117, “A versatile synthesis of 2-methoxyestradiol, an endogenous metabolite of estradiol which inhibits tubulin polymerization by binding to the colchicine binding site” (Bioorg Med Chem Lett, 1994) are described below.

Take `COc1cc2c(cc1O)CC[C@@H]1[C@@H]2CC[C@]2(C)[C@@H](O)CC[C@@H]12`: the result with Mus musculus [1] and with Mus musculus [2] was Active.
